Species: Rattus norvegicus
Assay: Open TG-GATES - Regimen: Single
Format: toxicity, organism-based, Sprague-Dawley
Parameters: regimen Single, gender Male, age 6 weeks
Settings: in vivo, po, 100 mg/kg, route gavage, dose level Low; for APTT / Bas / Eos / Fbg / Hb / Ht / Lym / MCH / MCHC / MCV / Mono / Neu / PT / Plat / RBC / Ret / WBC: tissue Blood; for KIDNEY_L / KIDNEY_R / KIDNEY_TOTAL: tissue Kidney; for LIVER: tissue Liver; for A/G / ALP / ALT / AST / BUN / CRE / Ca / Cl / DBIL / GLC / IP / K / LDH / Na / PL / RALB / TBIL / TC / TG / TP / gamma-GTP: tissue Plasma

## O=C(O)COc1nn(Cc2ccccc2)c2ccccc12 [BENDAZAC]
3 h
  TERMINAL_BW: 207.2 g
  APTT: 16.8 s
  Bas: 0%
  Eos: 1%
  Fbg: 209.6 mg/dL
  Hb: 14 g/dL
  Ht: 42.1%
  Lym: 80.8%
  MCH: 21.8 pg
  MCHC: 33.4%
  MCV: 65.2 fL
  Mono: 7.2%
  Neu: 11.6%
  PT: 11.3 s
  Plat: 131.9 x10_4/uL
  RBC: 644.8 x10_4/ul
  Ret: 9.1%
  WBC: 111.8 x10_2/uL
  KIDNEY_L: 1 g
  KIDNEY_R: 1 g
  KIDNEY_TOTAL: 1.9 g
  LIVER: 9.9 g
  A/G: 2.1
  ALP: 1620.8 IU/L
  ALT: 35.8 IU/L
  AST: 68 IU/L
  BUN: 12.8 mg/dL
  CRE: 0.6 mg/dL
  Ca: 10.9 mg/dL
  Cl: 102 meq/L
  DBIL: 0.008 mg/dL
  GLC: 196.8 mg/dL
  IP: 9.2 mg/dL
  K: 4.6 meq/L
  LDH: 93.2 IU/L
  Na: 140.2 meq/L
  PL: 130.2 mg/dL
  RALB: 3.7 g/dL
  TBIL: 1.4 mg/dL
  TC: 73.6 mg/dL
  TG: 56.2 mg/dL
  TP: 5.4 g/dL
  gamma-GTP: 1.4 IU/L
6 h
  TERMINAL_BW: 207.8 g
  APTT: 16.4 s
  Bas: 0%
  Eos: 1%
  Fbg: 202.2 mg/dL
  Hb: 13.9 g/dL
  Ht: 41.6%
  Lym: 79.4%
  MCH: 21.6 pg
  MCHC: 33.4%
  MCV: 64.9 fL
  Mono: 8.8%
  Neu: 11.2%
  PT: 12 s
  Plat: 113.2 x10_4/uL
  RBC: 641.8 x10_4/ul
  Ret: 10.5%
  WBC: 96.2 x10_2/uL
  KIDNEY_L: 1 g
  KIDNEY_R: 1 g
  KIDNEY_TOTAL: 2 g
  LIVER: 9.2 g
  A/G: 2.3
  ALP: 1175.6 IU/L
  ALT: 35.2 IU/L
  AST: 66 IU/L
  BUN: 13 mg/dL
  CRE: 0.6 mg/dL
  Ca: 10.8 mg/dL
  Cl: 103.4 meq/L
  DBIL: 0.09 mg/dL
  GLC: 183.8 mg/dL
  IP: 10.7 mg/dL
  K: 4.8 meq/L
  LDH: 90.6 IU/L
  Na: 140.2 meq/L
  PL: 126 mg/dL
  RALB: 3.7 g/dL
  TBIL: 1.2 mg/dL
  TC: 70.8 mg/dL
  TG: 41.4 mg/dL
  TP: 5.3 g/dL
  gamma-GTP: 1.8 IU/L
9 h
  TERMINAL_BW: 207.3 g
  APTT: 17 s
  Bas: 0%
  Eos: 1%
  Fbg: 218.2 mg/dL
  Hb: 13.5 g/dL
  Ht: 40.3%
  Lym: 70%
  MCH: 22 pg
  MCHC: 33.6%
  MCV: 65.4 fL
  Mono: 8.8%
  Neu: 20%
  PT: 11.7 s
  Plat: 125.1 x10_4/uL
  RBC: 617 x10_4/ul
  Ret: 8.5%
  WBC: 105.7 x10_2/uL
  KIDNEY_L: 0.9 g
  KIDNEY_R: 1 g
  KIDNEY_TOTAL: 1.9 g
  LIVER: 8.6 g
  A/G: 2.1
  ALP: 1541.8 IU/L
  ALT: 29 IU/L
  AST: 58.2 IU/L
  BUN: 11.6 mg/dL
  CRE: 0.6 mg/dL
  Ca: 10.6 mg/dL
  Cl: 104.4 meq/L
  DBIL: 0.034 mg/dL
  GLC: 189 mg/dL
  IP: 9.8 mg/dL
  K: 4.4 meq/L
  LDH: 90.2 IU/L
  Na: 142.8 meq/L
  PL: 127.2 mg/dL
  RALB: 3.8 g/dL
  TBIL: 1 mg/dL
  TC: 75.4 mg/dL
  TG: 34.2 mg/dL
  TP: 5.6 g/dL
  gamma-GTP: 1.2 IU/L
24 h
  TERMINAL_BW: 225.9 g
  APTT: 17.2 s
  Bas: 0%
  Eos: 1%
  Fbg: 209.8 mg/dL
  Hb: 13.4 g/dL
  Ht: 40.2%
  Lym: 73%
  MCH: 21.6 pg
  MCHC: 33.3%
  MCV: 64.9 fL
  Mono: 11.6%
  Neu: 14.4%
  PT: 11.8 s
  Plat: 115.2 x10_4/uL
  RBC: 619 x10_4/ul
  Ret: 7.9%
  WBC: 109.4 x10_2/uL
  KIDNEY_L: 1.1 g
  KIDNEY_R: 1.1 g
  KIDNEY_TOTAL: 2.2 g
  LIVER: 11.5 g
  A/G: 2.1
  ALP: 1133.2 IU/L
  ALT: 39.6 IU/L
  AST: 62.8 IU/L
  BUN: 16.8 mg/dL
  CRE: 0.6 mg/dL
  Ca: 11.3 mg/dL
  Cl: 104.2 meq/L
  DBIL: 0.024 mg/dL
  GLC: 204.8 mg/dL
  IP: 8 mg/dL
  K: 4.6 meq/L
  LDH: 127.8 IU/L
  Na: 141.2 meq/L
  PL: 147 mg/dL
  RALB: 3.7 g/dL
  TBIL: 0.4 mg/dL
  TC: 74.2 mg/dL
  TG: 86.4 mg/dL
  TP: 5.5 g/dL
  gamma-GTP: 1.2 IU/L

Source: ChEMBL document CHEMBL3885861, “Open TG-GATES”
